Laboratory results: article PMC9250890 (Cell Reports, 2022)
pIC50: −log10 of the molar value. “Also recorded” adds a separate entry of the source. Like-named read-outs stand apart in the source and are kept apart here.

Assays:
[1] = biological target: T1, human ANO6 (Homo sapiens, UniProt Q4KMQ2); assay: YFP fluorescence quenching-based anion channel assay, FRT-ANO6 cells; assay type: cell-based; conditions: half-maximal inhibitory concentration [IC50], ANO6 ion channel, FRT-ANO6 cells; 10 μM ionomycin
T1 sequence (Q4KMQ2 1-931 isoform Q4KMQ2-2): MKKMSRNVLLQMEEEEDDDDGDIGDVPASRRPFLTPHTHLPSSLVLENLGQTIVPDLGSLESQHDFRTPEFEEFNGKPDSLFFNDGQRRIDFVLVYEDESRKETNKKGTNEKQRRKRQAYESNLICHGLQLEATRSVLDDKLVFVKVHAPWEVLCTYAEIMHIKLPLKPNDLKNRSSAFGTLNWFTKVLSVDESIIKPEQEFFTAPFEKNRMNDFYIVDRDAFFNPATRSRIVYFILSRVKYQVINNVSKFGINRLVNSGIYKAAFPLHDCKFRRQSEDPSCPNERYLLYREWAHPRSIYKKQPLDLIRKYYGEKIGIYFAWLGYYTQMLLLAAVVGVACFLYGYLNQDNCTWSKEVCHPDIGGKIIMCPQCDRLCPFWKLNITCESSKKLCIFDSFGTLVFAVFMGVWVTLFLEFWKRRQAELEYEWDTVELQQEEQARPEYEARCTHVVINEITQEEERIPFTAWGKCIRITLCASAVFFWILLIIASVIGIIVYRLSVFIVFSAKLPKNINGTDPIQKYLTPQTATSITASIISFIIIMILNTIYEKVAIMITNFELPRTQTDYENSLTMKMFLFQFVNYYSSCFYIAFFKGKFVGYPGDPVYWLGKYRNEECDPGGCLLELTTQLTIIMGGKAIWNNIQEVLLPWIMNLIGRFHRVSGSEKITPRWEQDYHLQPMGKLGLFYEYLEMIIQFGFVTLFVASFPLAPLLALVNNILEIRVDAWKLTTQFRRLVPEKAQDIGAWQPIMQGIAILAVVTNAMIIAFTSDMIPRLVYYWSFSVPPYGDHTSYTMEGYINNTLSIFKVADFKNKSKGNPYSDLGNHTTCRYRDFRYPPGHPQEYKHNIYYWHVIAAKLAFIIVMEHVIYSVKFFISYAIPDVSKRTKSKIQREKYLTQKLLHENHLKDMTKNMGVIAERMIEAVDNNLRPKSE

[2] = biological target: T2, ANO6 (TMEM16F) (Homo sapiens, UniProt Q4KMQ2); assay: Whole-cell patch clamp of ANO6 currents in HEK 293T-ANO6 cells; assay type: cell-based
T2 sequence (Q4KMQ2 1-931 isoform Q4KMQ2-2): T1 sequence (Q4KMQ2 1-931 isoform Q4KMQ2-2)

[3] = system: cytosolic Ca2+ signals; assay: Ionomycin-induced cytosolic Ca2+ signals; assay type: cell-based; conditions: up to 30 μM
[4] = system: human WT-CFTR; assay: CFTR short-circuit current in FRT-CFTR cells; assay type: cell-based; conditions: up to a 30-μM concentration
[5] = system: HeLa-ACE2 cells; assay: SARS2-PsV-induced PS externalization in HeLa-ACE2 cells; assay type: cell-based
[6] = system: HeLa-ACE2 cells; assay: SARS2-PsV-induced multinucleated cell formation; assay type: cell-based; conditions: SARS2-PsV 30 min
[7] = system: CHO-Spike / HEK 293T-ACE2-TMPRSS2 cells; assay type: cell-based; conditions: 10 μM
[8] = system: HEK 293T-ACE2-TMPRSS2 cells; assay: SARS2-PsV-induced cytosolic Ca2+ signals; assay type: cell-based; conditions: pretreatment: BAPTA-AM 3 μM, camostat 10 μM, A6-001 10 μM
[9] = system: HEK 293T-ACE2-TMPRSS2 cells; assay type: cell-based; conditions: 10 μM, ATP 100 μM
[10] = system: Calu-3 cells; assay: ATP-induced Ca2+ response in Calu-3 cells; assay type: cell-based, human; conditions: 10 μM, ATP 100 μM
[11] = system: SARS-CoV-2 Spike pseudotyped virus (SARS2-PsV); assay: microbe, parasite or virus in culture; assay type: cell-based
[12] = system: SARS-CoV-2; assay: Viral replication of authentic SARS-CoV-2 in Calu-3 cells; assay type: cell-based
[13] = system: SARS-CoV-2; assay: Viral replication of authentic SARS-CoV-2 in Vero cells; assay type: cell-based; conditions: for pIC50: read-out: IC50, viral replication, Vero, supernatant
[14] = system: SARS-CoV-2; assay: Viral replication of SARS-CoV-2 in primary human nasal epithelial; assay type: cell-based; conditions: 10 μM basolateral, 72 h, HNE
[15] = system: Calu-3 cells; assay: Cell viability MTS assay, Calu-3 cells; assay type: cell-based, human; conditions: Calu-3 and Vero cells
[16] = system: SARS-CoV-2; assay: Cellular viral RNAs by qPCR at 4 h post-infection in Vero cells; assay type: cell-based; conditions: 0.01 MOI
[17] = system: human ANO1; assay: YFP quenching anion channel assay, FRT-ANO1 cells
[18] = system: hANO6; conditions: 10 μM
[19] = 10 μM during infection and 4 h post-infection
[20] = 10 μM during the infection period alone

O=C(NCc1ccc(F)cc1)c1cccc(Nc2ccc(-c3ccccc3)nn2)c1 [A6-001, N-(4-fluorobenzyl)-3-((6-phenylpyridazin-3-yl)amino)benzamide]
pIC50 [1]: 7.05
pIC50 [2]: 7.15
ionomycin-induced cytosolic Ca2+ signals [3]: did not affect
CFTR currents [4]: did not affect
SARS2-PsV-induced PS externalization ([5]; 10 μM, 1 h): strongly inhibited; also recorded: inhibit
PS externalization evoked by trypsin-pretreated SARS2-PsV ([5]; trypsin 10 μg/mL, 10 min, 37°C): inhibits
multinucleated cell formation [6]: inhibits; also recorded: significantly reduced
membrane-fusion events ([7]; 8-h time-lapse): abolishes; also recorded: profoundly reduced
initial lipid-mixing event and cell-cell fusion ([7]; Video S3): eliminated
cell-cell adhesion ([7]; initial 1 h): does not affect; also recorded: not affecting
SARS2-PsV-induced cytosolic Ca2+ signals [8]: did not affect
purinergic agonist (ATP)-induced Ca2+ response [9]: did not alter
purinergic agonist (ATP)-induced Ca2+ response [10]: did not alter
cellular viral reduction, pseudotyped virus [11]: 78%
single-round infection of SARS2-PsV ([11]; BAPTA-AM 10 μM): dose dependently inhibited
pIC50 ([11]; Severe acute respiratory syndrome coronavirus 2, read-out: IC50, single-round infection): 6.38
viral reduction, qPCR ([12]; 10 μM, 48 h, […], Calu-3): 1/50
ΔCt ([12]; 10 μM, 48 h, […], Calu-3): −13.5
pIC50 ([12]; Severe acute respiratory syndrome coronavirus 2, Calu-3, 48 h, read-out: IC50, viral replication): 6.01
viral reduction, plaque assay ([13]; 10 μM, 48 h, Vero): 1/500
viral reduction, qPCR ([13]; 10 μM, 48 h, Vero): 1/150
ΔCt ([13]; 10 μM, 48 h, Vero): −11.8
pIC50 ([13]; Severe acute respiratory syndrome coronavirus 2, Vero, 48 h): 6.03
virus-induced cytolysis ([13]; Vero, 48 h, light microscopy): dose dependently reduced
pIC50 [13]: 6.13
average reduction in viral replications, plaque assay [14]: 94%
safety margin [15]: > 100
reduction in cellular viral RNAs [16, 19]: 98%
ΔΔCt, cellular viral RNA [16, 19]: 5.58
cellular viral reduction, authentic virus [16, 20]: 86%
ΔΔCt, cellular viral RNA [16, 20]: 2.84
ANO6 selectivity against ANO1 [17]: 460 fold
ionomycin-induced increase in Lact-C2-positive, PI-negative cell population (Q3) ([18]; Jurkat-ANO6): reversed
ionomycin-induced increase in Lact-C2-positive, PI-negative cell population (Q3) ([18]; Jurkat): reversed
